The source of these data is ChEMBL document CHEMBL1152465, “Comparative evaluation of the inhibitory activities of a series of pyrimidinedione congeners that inhibit human immunodeficiency virus types 1 and 2” (Antimicrob Agents Chemother, 2008).

Calls of active or inactive are those of the source.

For series [1], the target named is Human immunodeficiency virus type 1 reverse transcriptase (Human immunodeficiency virus 1, UniProt Q72547). The series can be described thus: Inhibition of wild type HIV1 reverse transcriptase assessed as 32P-labeled GMP incorporation into nascent DNA strand.
Series [2] in a line: Therapeutic index, ratio of TC50 for human CEM-SS cells to EC50 for HIV1 RF infected in human CEM-SS cells. Particulars: read-out: TI. The class given is cell-based.
Series [3] has as its system Human immunodeficiency virus 1. The series is described as follows: Antiviral activity against HIV1 RF infected in human CEM-SS cells assessed as inhibition of virus-induced cytopathic effect by XTT assay. The series is classed as functional, organism-based. Particulars: Human immunodeficiency virus 1, RF. (In general: Protection from cytopathic effect is a common read-out in antiviral testing.)

Series [4] relates to Human immunodeficiency virus 2. The series is described as follows: Antiviral activity against HIV2 assessed as inhibition of viral single round replication at early time point. The series is classed as functional, organism-based.
Series [5] deals with Human immunodeficiency virus 2. The series is described as follows: Antiviral activity against HIV2 assessed as inhibition of viral replication treated at time points after viral entry into host cells. The series is classed as functional, organism-based.
The nature of series [6]: Therapeutic index, ratio of TC50 human HeLa cells expressing CD4-LTR to EC50 for HIV1 entry inhibition in human HeLa cells expressing CD4-LTR. The class given is cell-based. The settings on record: read-out: TI.
For series [7], the system named is Human immunodeficiency virus 1. The series can be described thus: Antiviral activity against HIV1 infected in human CEM-SS cells assessed as inhibition of viral replication and virus-induced cytopathic effect by dose-response curve analysis. The class given is functional. The settings on record: Human immunodeficiency virus 1, CEM-SS.
The nature of series [8]: Cytotoxicity against human CEM-SS cells by XTT assay. The series is classed as cell-based. Particulars: read-out: TC50 (the source's name).
In series [9] the target is Human immunodeficiency virus type 1 reverse transcriptase (Human immunodeficiency virus 1, UniProt Q72547, K103N). The series can be described thus: Inhibition of HIV1 reverse transcriptase K103N mutant assessed as 32P-labeled GMP incorporation into nascent DNA strand.
For series [10], the system named is Human immunodeficiency virus 2. The series is described as follows: Inhibition of HIV2 reverse transcriptase assessed as 32P-labeled GMP incorporation into nascent DNA strand at highest concentration.
Series [11] concerns Human immunodeficiency virus 1. The series can be described thus: Antiviral activity against HIV1 infected in human HeLa cells expressing CD4-LTR assessed as inhibition of viral entry-related beta galactosidase expression treated for 2 hrs followed by drug wash out measured after 48 hrs by MAGI assay. The series is classed as functional, organism-based. Particulars: Human immunodeficiency virus 1, HeLa.

A short description of series [12]: Cytotoxicity against human HeLa cells expressing CD4-LTR by XTT assay. Particulars: read-out: TC50 (the source's name). The series is classed as cell-based. On the technique in general: Tetrazolium dyes change colour on reduction, which living cells bring about.
The nature of series [13]: Therapeutic index, ratio of TC50 for human CEM-SS cells to EC50 for HIV2 ROD infected in human CEM-SS cells. Particulars: for selectivity ratio: CEM-SS cells, read-out: TI; for TI: cem-ss. The series is classed as cell-based.
For series [14], the system named is Human immunodeficiency virus 2. The series can be described thus: Inhibition of HIV2 reverse transcriptase.
Series [15] concerns Human immunodeficiency virus 2. The series is described as follows: Antiviral activity against HIV2 ROD infected in human CEM-SS cells assessed as inhibition of virus-induced cytopathic effect by XTT assay. The series is classed as functional, organism-based, ISOLATE ROD.
Where [16] appears, read: Human immunodeficiency virus 2, ISOLATE ROD, CEM-SS, read-out: EC50.

Regarding `CCc1c(Sc2cc(C)cc(C)c2)n(CC2CC2)c(=O)[nH]c1=O`, the IC50 in series [1] was 18 nM; in series [9], 0.257 µM. For the same compound, the selectivity ratio in [2] worked out at 25500; in [6], 1580; in series [13], 62.5. For the same compound, the figures for the EC50 in series [3], in [11] and in series [15] (setting [16]) were 0.8 nM, 9 nM and 0.1 µM, respectively. Further, the outcome in [4] was Active. Also, the result in series [5], in series [10] and in series [14] was inactive. Moreover, the EC99 in series [7] was determined as 1 µM. Besides, the CC50 was found to be 7.6 µM in [8] and 14.4 µM in series [12].
As for `Cc1cc(C)cc(Sc2c(C(C)C)c(=O)[nH]c(=O)n2CC2CC=CC2)c1`, the results for the IC50 in series [1] and in [9] were 241 nM and greater than 270 µM, respectively. The selectivity ratio is 22 in [2], 307 in series [6] and greater than 1.3 in series [13]. The EC50 in series [3] is 1220 nM; in series [11] it was 80 nM; in [15] (setting [16]), 15.3 µM. Further, in series [4], the result was Active. Also, the outcome in series [5], in [10] and in series [14] was inactive. Besides, the EC99 in series [7] stood at 1 µM. In addition, the CC50 was determined as 26.5 µM in series [8] and 23.2 µM in [12].
Turning to `CCc1c(C(=O)c2cc(C)cc(C)c2)n(CCC2=CCCC2)c(=O)[nH]c1=O`, the IC50 in series [1] was 2000 nM; in series [9] it was greater than 273 µM. Also, the selectivity ratio in series [2] is 20100; in series [6] it was 421; in [13] it was greater than 58.6. The EC50 in [3] was 55 nM; in series [11] it was 2600 nM; in series [15] (setting [16]), 18.6 µM. Further, the outcome in series [4] was Active. Further, the result in series [5], in series [10] and in series [14] was inactive. The EC99 in series [7] stood at 1 µM. Further, the CC50 in series [8] and in [12] was 1100 µM throughout.
Consider `CCc1c(Sc2cc(C)cc(C)c2)n(CCC2C=CCC2)c(=O)[nH]c1=O` (stereo not given), for which the IC50 in series [1] is 128 nM; in [9] it was greater than 270 µM. Further, the selectivity ratio in series [2] was 641; in [6], 192; in [13], 10. For the same compound, the concentration for a half-maximal effect (EC50) in series [3] was found to be 10 nM; in series [11] it was 30 nM; in series [15] (setting [16]), 0.6 µM. In series [4], the outcome was Active. Further, the result in series [5], in [10] and in [14] was inactive. Moreover, the EC99 in series [7] was determined as 1 µM. Besides, the CC50 was 5.7 µM in [8] and 6.25 µM in series [12].
As for `Cc1cc(C)cc(Sc2c(C(C)C)c(=O)[nH]c(=O)n2CC2CCCCC2)c1`, the IC50 in [1] was 164 nM; in series [9] it was greater than 258 µM. Further, the selectivity ratio in series [2] is 1560; in [6], 1890; in series [13] it was 2.4. Further, the EC50 in series [3] came out at 11 nM; in series [11], 8 nM; in series [15] (setting [16]), 5.5 µM. For the same compound, in [4], the outcome was Active. Also, the outcome in series [5], in series [10] and in [14] was inactive. For the same compound, the EC99 in series [7] came out at 1 µM. In addition, the results for the CC50 in series [8] and in series [12] were 13.2 µM and 15.2 µM, respectively.
`CCc1c(Sc2ccccc2)n(CC2CC=CC2)c(=O)[nH]c1=O`: the IC50 in [1] turned out to be 366 nM; in series [9] it was 17.1 µM. In addition, the selectivity ratio in series [2] amounted to 262; in series [6], 1250. Besides, the EC50 in series [3] is 150 nM; in [11] it was 20 nM; in [15] (cem-ss) it was “Not Active”. Besides, the result in series [4] was Active. Moreover, the result in series [5], in series [10] and in [14] was inactive. Besides, the EC99 in [7] was 1 µM. The CC50 in [8] worked out at 20.7 µM; in [12], 30.3 µM. In addition, the TI entry in [13] is given as “Not Active”.
As for `CCc1c(Oc2cc(C)cc(C)c2)n(CCC2CC=CC2)c(=O)[nH]c1=O`, the IC50 came to 1140 nM in series [1] and 9.8 µM in [9]. In addition, the selectivity ratio in series [2] was 4870; in series [6] it was 570; in [13] it was greater than 734. Besides, the values for the EC50 in [3], in series [11] and in series [15] (setting [16]) were 230 nM, 1950 nM and 1.5 µM, respectively. Also, the outcome in [4] was Active. Besides, the result in [5], in series [10] and in [14] was inactive. The EC99 in [7] was found to be 1 µM. For the same compound, the CC50 in series [8] amounted to 1100 µM; in [12], 1110 µM.
For `CCc1c(C(=O)c2ccccc2)n(CC2CC=CC2)c(=O)[nH]c1=O`, the figures for the IC50 in [1] and in series [9] were 256 nM and 134 µM, respectively. Besides, the selectivity ratio stood at 1440 in [2], 30 in [6] and 2.9 in series [13]. Moreover, the concentration for a half-maximal effect (EC50) came to 61.7 nM in series [3], 2930 nM in series [11] and 30.9 µM in series [15] (setting [16]). The outcome in series [4] was Active. Also, the result in series [5], in series [10] and in [14] was inactive. For the same compound, the EC99 in series [7] was found to be 1 µM. Moreover, the CC50 in series [8] and in [12] was 88.5 µM in each case.
Consider `CCc1c(C(=O)c2cc(C)cc(C)c2)n(CC2CCCC2)c(=O)[nH]c1=O`, for which the IC50 worked out at 169 nM in [1] and 6.9 µM in [9]. In addition, the figures for the selectivity ratio in series [2], in series [6] and in [13] were 74700, 996 and 299, respectively. Also, the EC50 was 3.4 nM in [3], 250 nM in series [11] and 0.8 µM in series [15] (setting [16]). The outcome in series [4] was Active. For the same compound, the outcome in [5], in series [10] and in [14] was inactive. Besides, the EC99 in series [7] was found to be 1 µM. The CC50 in series [8] and in series [12] was 253 µM throughout.
Consider `Cc1cc(C)cc(Oc2c(C(C)C)c(=O)[nH]c(=O)n2CCC2CCCC2)c1`, for which the IC50 in [1] stood at 234 nM; in series [9], 16.2 µM. The selectivity ratio in [2] was 145; in [6], 675. In addition, the EC50 was 50 nM in series [3], 20 nM in series [11] and “Not Active” in series [15] (cem-ss). For the same compound, the result in [4] was Active. The result in [5], in series [10] and in [14] was inactive. Also, the EC99 in series [7] was 1 µM. Besides, the CC50 in [8] was found to be 7.8 µM; in series [12], 12.7 µM. Also, in series [13], the TI result was “Not Active”.

As usually defined, the IC50 is the concentration that gives 50% inhibition. In general, EC50 refers to the concentration needed to bring the measured effect to its halfway point. For orientation: EC99 means the concentration needed for an effect of 99%.
